Patent US20200383985A1, “Inhibitors of Protease Activated Receptor-2” (Endosome Therapeutics, Inc., priority 2017, published 2020)

What was measured:
[1] = system: cytosolic and nuclear ERK; experiment: FRET assays of cytosolic and nuclear ERK in HEK293 cells; format: cell-based; details: for trypsin activation of cytosolic and nuclear ERK: I-343 10 μM, SCH530348 100 nM, PS2 30 μM
Experimental: Trypsin-induced ERK signaling mediated by endosomal PAR2 signaling was investigated in HEK293 cells expressing Flag-PAR2-HA11 and FRET biosensors for cytosolic and nuclear ERK (CytoEKAR, NucEKAR), plasma membrane and cytosolic PKC (pmCKAR, CytoCKAR), and plasma membrane and cytosolic cAMP (pmEpac, CytoEpac). […] I-343 (10 μM) but not SCH530348 (100 nM) inhibited trypsin activation of cytosolic and nuclear ERK (FIG. 5G). PS2 and DynK44E inhibited trypsin-stimulated activation of cytosolic and nuclear ERK when compared to PS2 inact and DynWT controls (FIG. 5H, 5I, 17G-J). AG1478 (1 μM), an inhibitor of EGF receptor tyrosine kinase (Levitzki, A. & Gazit, A. Science 1995, 267(5205): 1782-1788), UBO-QIC (100 nM), which inhibits Gαq and certain Gβγ signals ([…]), and G66983 (1 μM), which inhibits all isoforms of PKC (Gschwendt, M, et al., FEBS Lett 1996, 392(2): 77-80), suppressed trypsin-stimulated activation of cytosolic ERK (FIGS. 5J and 17K).
HEK293 cells were cultured in DMEM supplemented with 10% (v/v) FBS (5% CO2, 37° C.). When necessary serum restriction was achieved by replacing culture medium with DMEM containing 0.5% FBS overnight. Cells were transiently transfected using polyethylenimine (PEI) (1:6 DNA:PEI).
HEK293 cells were transiently transfected in 10 cm dishes (˜50% confluency) with Flag-PAR2-HA (2.5 μg) and FRET biosensors CytoEKAR or NucEKAR (2.5 μg) (Jensen, D. D. et al., Sci Transl Med. 2017, 9(392), eaal3447; Thomsen, A. R. B., et al., Cell 2016, 166(4): 907-919). In experiments examining the role of dynamin, cells were transfected with FLAG-PAR2-HA (1.25 μg), FRET biosensor (1.25 μg) and either DynWT-HA, DynK44E-HA or pcDNA3.1 (2.5 μg). At 24 h after transfection, cells were seeded on ViewPlate-96 well plates (PerkinElmer). FRET was assessed 72 h post-transfection, following overnight serum restriction. Cells were equilibrated in HBSS-HEPES (30 min, 37° C.). FRET was measured using a PHERAstar FSX Microplate Reader (BMG LabTech). For CFP/YFP emission ratio analysis, cells were sequentially excited using a CFP filter (425/10 nm) with emission measured using YFP (550/50 nm) and CFP (490/20 nm) filters. FRET was measured before and after stimulation with trypsin (10 nM), NE (100 nM), CS (100 nM), phorbol 12,13-dibutyrate, PDBu (positive control, 1 μM), or vehicle. FRET ratios (donor/acceptor intensity for EKAR, or acceptor/donor intensity for CKAR and Epac) were calculated and corrected to baseline and vehicle treatments to determine ligand-induced FRET (ΔFRET). Treatment effects were determined by comparison of area under the curve values. Signalling inhibitors were dissolved in HBSS-HEPES. PS2 and PS2 inact were dissolved in HBSS-HEPES+1% DMSO. Cells were incubated with UBO-QIC (100 nM), AG1478 (1 μM), G66983 (1 μM), PS2 or PS2 inact (30 μM) or vehicle (30 min preincubation, inclusion throughout).

mice = experiment: Somatic mechanical nociception, von Frey filaments after intraplantar injection; format: in vivo, mouse; details: for NE- and CS-induced allodynia / trypsin-induced mechanical allodynia: inhibitor 50 μM, 10 μl intraplantar; for NE- and CS-induced allodynia: 30 min before NE (1.2 μM) or CS (2.5 μM); for trypsin-induced mechanical allodynia: 30 min before trypsin (10 nM), at 1 and 2 h; for mechanical allodynia after intraplantar protease: WT mice, 10 μl trypsin (80 nM), NE (3.9 μM) or CS (5 μM), within 30 min, maintained for 180 min
Experimental: After 30 min, trypsin (10 nM), NE (1.2 μM), or CS (2.5 μM) (10 μl) was injected into the same paw.
Mice were acclimatized to the experimental apparatus, room and investigator for 1-2 h on 2 successive days before studies. Investigators were blinded to the test agents. Mice were sedated (5% isoflurane) for intraplantar injections. Dy4a, Dy4 inact, PS2, PS2 inact (all 50 μM) or vehicle (0.2% DMSO in 0.9% NaCl) (10 μl) was injected into the left hindpaw. After 30 min, trypsin (10 or 80 nM), CS (2.5 or 5 μM) or NE (1.2 or 3.9 μM) (all 10 μl) was injected into the same hindpaw. Mechanical nociceptive responses were evaluated by examining paw withdrawal to stimulation of the plantar surface of the hind-paw with calibrated von Frey filaments. von Frey scores were measured in triplicate to establish a baseline for each animal on the day before experiments, and were then measured for up to 4 h after protease administration. To assess edema, paw thickness was measured at the site of injection between the plantar and the dorsal surfaces of the paw using digital calipers. For evaluation of neutrophil infiltration, paws were collected at 4 h after intraplantar injection of trypsin (10 μl, 80 nM) or vehicle, fixed in 10% neutral buffered formalin for 48-72 h, bisected, and fixed in formalin for an additional 12 h. Tissue was decalcified in 10% 0.5 M EDTA for 6 days, washed in water, transferred to 70% ethanol for 24 h, and embedded in paraffin. Sections (5 μm) were incubated with neutrophil antibody Ly6G/6C clone NIMP-R14 (Abcam #ab2557, Lot #GR135037-1, AB_303154, 1:800, room temperature, 12 h). Sections were processed for chromogenic immunohistochemistry on a Ventana Medical Systems Discovery XT platform with online deparaffinization using Ventana's reagents. Ly6G/Ly6c was enzymatically treated with protease-3 (Ventana Medical Systems) for 8 min. Ly6G/Ly6c was detected with goat anti-rat horseradish peroxidase conjugated multimer incubated for 16 min.

Row | Molecule | trypsin activation of cytosolic and nuclear ERK [1] | NE- and CS-induced allodynia (mice) | trypsin-induced mechanical allodynia (mice) | mechanical allodynia after intraplantar protease (mice) | further results
1 | Cc1nc(C(=O)N2CCN(C(=O)c3cn4nc(-c5ccc(F)cc5)cc(C(C)(C)C)c4n3)C(C)(C)C2)n[nH]1 [Compound I-343, (8-(tert-butyl)-6-(4-fluorophenyl)imidazo[1,2-b]pyridazin-2-yl)(2,2-dimethyl-4-(5-methyl-1H-1,2,4-triazole-3-carbonyl)piperazin-1-yl)methanone] | inhibited | – | – | – | –
2 | O=C(N/N=C/c1cc(O)c(O)cc1O)c1cc2ccccc2cc1O [Dy4] | – | unchanged or minimally affected | inhibited | – | –
3 | O=C1NC(=NS(=O)(=O)c2cccc3ccccc23)S/C1=C\c1ccc(Br)cc1 [PS2] | inhibited | unchanged or minimally affected | inhibited | – | –
4 | NE: protease (elastase) activating PAR2 by biased mechanisms | – | – | – | induced mechanical allodynia | –
5 | trypsin | – | – | – | induced mechanical allodynia | EC50 ([1]; HEK293 cells, read-out: EC50, activation of ERK in the cytosol and nucleus): 5 nM; activation of ERK in the cytosol and nucleus ([1]; trypsin 10 nM, NE or CS 100 nM): stimulated a rapid and persistent activation
